Data taken from doi:10.1101/2024.12.09.627564, “Cannabinoid inhibition of mechanosensitive K^+ channels” (bioRxiv, 2024).

Target: T1, TRAAKG158D (Homo sapiens, UniProt Q9NYG8, G132D)
T1 construct: The transcribed messages encode H. sapiens TRAAK amino acids 1–393; expressed in transfected cells; host or cells: Xenopus laevis oocytes, cRNA injection
T1 sequence (Q9NYG8 1-393 G132D): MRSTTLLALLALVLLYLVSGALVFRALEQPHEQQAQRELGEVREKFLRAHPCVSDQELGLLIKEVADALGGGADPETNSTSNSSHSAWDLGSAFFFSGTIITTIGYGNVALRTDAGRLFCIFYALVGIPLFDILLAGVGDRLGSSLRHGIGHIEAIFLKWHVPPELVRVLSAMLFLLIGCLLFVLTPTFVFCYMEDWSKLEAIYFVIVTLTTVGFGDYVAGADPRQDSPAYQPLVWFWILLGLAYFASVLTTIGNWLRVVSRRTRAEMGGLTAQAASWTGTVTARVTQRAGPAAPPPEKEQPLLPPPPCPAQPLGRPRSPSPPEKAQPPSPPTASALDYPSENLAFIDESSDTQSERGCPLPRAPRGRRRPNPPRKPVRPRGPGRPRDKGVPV
Test: Excised patch recording of TRAAK mutant G158D
Assay type: biochemical
Text: For patch clamp recording from Xenopus oocytes, genes encoding full-length Homo sapiens TRAAK (UniProt Q9NYG8–2), TREK-1 (UniProt O95069), and TREK-2 (UniProt P57789) were codon optimized for eukaryotic expression, synthesized (Genewiz), and cloned into a modified pGEMHE vector using Xho1 and EcoR1 restriction sites. The transcribed messages encode H. sapiens TRAAK amino acids 1–393, TREK-1 amino acids 1–426, or TREK-2 amino acids 1–538 with an additional three amino acids (SNS) at the C terminus. TRAAK mutants were introduced by polymerase chain reaction (PCR). Linearized DNA was transcribed in vitro using T7 polymerase. Complementary RNA (0.1 to 10 ng for TRAAK, TREK-1, TREK-2, and mutants) in 50 nL H2O was injected into Xenopus laevis oocytes extracted from anesthetized frogs. Currents were recorded at 25 °C from inside-out patches excised from oocytes 1 to 5 d after RNA injection. The pipette solution contained 15 mM KCl, 135 mM NaCl, 2 mM MgCl2, and 10 mM HEPES (pH = 7.4 with KOH) and the bath solution contained 150 mM KCl and 10 mM HEPES (pH = 7.1 with KOH). Borosilicate glass pipettes were pulled to 2–5 MΩ resistance.
Patches were evaluated with voltage-step protocols to confirm TRAAK expression and minimal non-specific leak based on reversal potential. Currents were recorded using an Axopatch 200B amplifier (Molecular Devices) at a bandwidth of 1 kHz and digitized with an Digidata 1550B (Molecular Devices) at 100–500 kHz using pClamp10.7 software. Pressure was applied with a second-generation high-speed pressure clamp device (HSPC-2-SB, ALA Scientific Instruments). Aggregated data were from patches from n ≥ 2 different cells on different days. No relevant differences were observed between patches from different cells. In an effort to minimize variability associated with differences in resting membrane tension, we targeted patches with low basal curvature and low resting channel activity and ensured measured pressure difference across the patch was as close to zero as possible at rest to prevent mechanical activation of channels. Data were analyzed using Clampfit 10.7, Excel, and Graphpad Prism software. For voltage families, the data were decimated 100x and plotted in Prism. […]
To avoid cannabinoid absorption to plastic, cannabinoid solutions were made in glass vials and diluted by weight, perfusion was performed using glass tubing pulled from borosilicate glass Pasteur pipettes (Fisherbrand, Cat# 13–678-20C), and recordings were performed in glass chambers. Channel activity was continuously recorded during perfusion steps. […]
The effects of cannabinoids on channel activity were quantified by the reduction in channel current evoked at 0 mV during a gap-free recording or during 200 ms long voltage families with steps ranging from −100 to +100 mV. […]

## C=C(C)[C@@H]1CCC(C)=C[C@H]1c1c(O)cc(CCCCC)cc1O [CBD, Cannabidiol]
  EC50: 1.03 ± 0.22 µM
  IC50: 1.03 ± 0.22 µM
G158D vs wild-type
  fold less sensitive than wild-type TRAAK: ~ 7.1 fold
Highest CBD concentration tested, 10 μM, read-out: inhibition plateauing at % of initial current
  inhibition at 10 µM: ~45%
